From PMC3052630 (Bioorganic & medicinal chemistry letters, 2011)

Key:
[1] = biological target: p38 (Homo sapiens, UniProt Q16539); assay: p38 biochemical inhibition / selectivity; conditions: for selectivity over p38: JNK3 vs p38
[2] = rat pharmacokinetics; type: in vivo
[3] = mouse plasma and brain levels; type: in vivo; conditions: 10 mg/kg ip 2h

Sequence of p38 (Q16539 whole entry): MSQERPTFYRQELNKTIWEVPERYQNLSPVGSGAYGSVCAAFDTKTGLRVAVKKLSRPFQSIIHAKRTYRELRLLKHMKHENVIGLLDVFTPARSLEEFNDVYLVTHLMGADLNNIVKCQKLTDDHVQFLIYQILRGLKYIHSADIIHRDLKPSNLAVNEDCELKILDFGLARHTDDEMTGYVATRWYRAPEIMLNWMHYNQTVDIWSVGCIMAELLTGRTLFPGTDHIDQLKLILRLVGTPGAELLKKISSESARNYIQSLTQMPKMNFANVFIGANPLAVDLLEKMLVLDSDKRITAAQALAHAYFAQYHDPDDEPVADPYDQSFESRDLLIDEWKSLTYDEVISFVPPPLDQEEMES

Cn1cc(-c2ccc3cnc(Nc4ccc(-n5cnc(N6CCOCC6)n5)cc4)nc3c2-c2cnn(C)c2)cn1 [14d]
IC50 [1]: > 20 µM
selectivity over p38 [1]: > 2200 fold

Cc1ncn(-c2ccc(Nc3ncc4cccc(-c5nccs5)c4n3)cc2)n1 [9g]
PK properties ([2]; data not shown, species not given): poor

Cc1ccc(-c2cccc3cnc(Nc4ccc(-n5cnc(N6CCOCC6)n5)cc4)nc23)cn1 [9a]
mouse [plasma] [3]: 2.72 µM

Cn1cc(-c2ccc3cnc(Nc4ccc(-n5cnc(N6CCOCC6)n5)cc4)nc3c2Cl)cn1 [13a]
selectivity over p38 [1]: > 500 fold
clearance ([2]; rat, plasma, iv, 1 mg/kg): 6 mL/min/kg

Cn1cc(-c2ccc3cnc(Nc4ccc(-n5cnc(N6CCOCC6)n5)cc4)nc3c2)cn1 [compound 3]
mouse [brain] [3]: 7.2 µM
